Blank lines part the entries; values can stand above or below the compound they belong to.
Tests used:
[1] = approximate; stated without experiment or reference; cited from earlier work
[2] = tested on: thrombin; assay: LC-MS analysis of aliquots to determine conversion; format: biochemical; settings: 1 mM PMSF
[3] = Gelation screening in buffer by heat/cool method; format: physicochemical; settings: buffer 100 mM PBS, 10% DMSO, pH = 7.2

Compound: Nc1ccc(C(=O)O)cc1 [PABA, p-aminobenzoic acid]
pKa [1]: ~5

Compound: O=S(=O)(F)Cc1ccccc1 [PMSF]
effect of thrombin inhibitor on enzymatic cleavage of compound 4 [2]: decrease in the rate of enzymatic cleavage

critical gel concentration (cgc) [3]: 54 mM
Compound: PABA-F5Phe-NH2 [Compound 1]

Reference: PMC3376645 (Chemical Communications (Cambridge, England), 2012)
